# Test results reported in patent US9464084B2, “P2X7 modulators” (Janssen Pharmaceutica NV, priority 2013, dated 2016).
# Biological target: P2X7 (Homo sapiens (Human), UniProt Q99572)
# Assay: P2X7 antagonism in human PBMCs (LPS + Bz-ATP induced IL-1β release, ELISA);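 further: PBMCs from donor human blood, with a further 1.5 h incubation of the cells in the assay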
# Assay type: cell-based
# Conditions: compound 1 μM, LPS 30 ng/ml, Bz-ATP 0.5 mM
# P2X7, sequence (Q99572 whole entry): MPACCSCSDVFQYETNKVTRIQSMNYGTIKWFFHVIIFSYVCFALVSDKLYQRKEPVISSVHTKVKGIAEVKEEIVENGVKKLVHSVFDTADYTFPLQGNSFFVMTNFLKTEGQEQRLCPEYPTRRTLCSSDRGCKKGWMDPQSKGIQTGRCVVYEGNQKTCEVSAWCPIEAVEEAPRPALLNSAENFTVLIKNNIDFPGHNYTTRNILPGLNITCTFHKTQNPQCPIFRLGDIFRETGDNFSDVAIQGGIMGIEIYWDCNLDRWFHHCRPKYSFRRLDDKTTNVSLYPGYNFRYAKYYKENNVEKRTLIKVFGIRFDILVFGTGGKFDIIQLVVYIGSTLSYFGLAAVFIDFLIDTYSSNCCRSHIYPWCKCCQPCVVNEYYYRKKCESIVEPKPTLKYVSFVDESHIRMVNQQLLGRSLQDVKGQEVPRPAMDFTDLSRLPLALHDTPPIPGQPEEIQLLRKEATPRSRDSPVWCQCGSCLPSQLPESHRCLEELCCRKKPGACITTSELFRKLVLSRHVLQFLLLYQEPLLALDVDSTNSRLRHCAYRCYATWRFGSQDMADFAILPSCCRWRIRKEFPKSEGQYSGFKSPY
row,PBMC 1 μM (% control),Structure (SMILES)
1,83.1 % control,"O=C(c1cccc(C(F)(F)F)c1Cl)N1CCc2ncn(-c3ccccn3)c2C1 [Example 8, (2-Chloro-3-(trifluoromethyl)phenyl)(3-(pyridin-2-yl)-6,7-dihydro-3H-imidazo[4,5-c]pyridin-5(4H)-yl)methanone]"

# Same assay, conditions: compound 10 μM, LPS 30 ng/ml, Bz-ATP 0.5 mM
row,PBMC 10 μM (% control),Structure (SMILES)
1,45.0 % control,"Cc1c(C(=O)N2Cc3nnn(-c4ncc(F)cn4)c3C[C@H]2C)cccc1C(F)(F)F (single isomer, unassigned) [Example 207, (6R*)-1-(5-Fluoropyrimidin-2-yl)-6-methyl-5-{[2-methyl-3-(trifluoromethyl)phenyl]carbonyl}-4,5,6,7-tetrahydro-1H-[1,2,3]triazolo[4,5-c]pyridine]"
2,−0.6 % control,"Cc1c(C(=O)N2Cc3nnn(-c4ncc(F)cn4)c3C[C@H]2C)ccnc1C(F)(F)F (single isomer, unassigned) [Example 187, (S*)-(1-(5-fluoropyrimidin-2-yl)-6-methyl-6,7-dihydro-1H-[1,2,3]triazolo[4,5-c]pyridin-5(4H)-yl)(3-methyl-2-(trifluoromethyl)pyridin-4-yl)methanone]"
3,76.5 % control,"C[C@@H]1Cc2c(nnn2-c2ncc(F)cn2)CN1C(=O)c1cccc(C(F)(F)F)c1F [Example 219, (6R)-1-(5-Fluoropyrimidin-2-yl)-5-{[2-fluoro-3-(trifluoromethyl)phenyl]carbonyl}-6-methyl-4,5,6,7-tetrahydro-1H-[1,2,3]triazolo[4,5-c]pyridine]"

# Second part, the molecule before the results:
row,Structure (SMILES),PBMC 10 μM (% control)
1,"C[C@@H]1Cc2c(nnn2-c2ncc(F)cn2)CN1C(=O)c1ccc(F)c(Cl)c1Cl (single isomer, unassigned) [Example 214, (6R*)-5-[(2,3-Dichloro-4-fluorophenyl)carbonyl]-1-(5-fluoropyrimidin-2-yl)-6-methyl-4,5,6,7-tetrahydro-1H-[1,2,3]triazolo[4,5-c]pyridine]",8.2 % control
2,"C[C@@H]1c2nnn(-c3ccc(F)cc3)c2C[C@H](C)N1C(=O)c1cccc(C(F)(F)F)c1Cl [Example 287, (2-chloro-3-(trifluoromethyl)phenyl)((4R,6S)-1-(4-fluorophenyl)-4,6-dimethyl-6,7-dihydro-1H-[1,2,3]triazolo[4,5-c]pyridin-5(4H)-yl)methanone]",−4.1 % control
3,"CC1Cc2c(nnn2-c2ncc(F)cn2)CN1C(=O)c1cccc(C(F)(F)F)c1Cl (stereo not shown) [Example 200, 5-{[2-Chloro-3-(trifluoromethyl)phenyl]carbonyl}-1-(5-fluoropyrimidin-2-yl)-6-methyl-4,5,6,7-tetrahydro-1H-[1,2,3]triazolo[4,5-c]pyridine]",3.2 % control
4,"C[C@@H]1Cc2c(nnn2-c2ncccc2F)CN1C(=O)c1cccc(C(F)(F)F)c1Cl (single isomer, unassigned) [Example 167, (6R*)-5-{[2-Chloro-3-(trifluoromethyl)phenyl]carbonyl}-1-(3-fluoropyridin-2-yl)-6-methyl-4,5,6,7-tetrahydro-1H-[1,2,3]triazolo[4,5-c]pyridine]",4.2 % control
5,"C[C@@H]1Cc2c(nnn2-c2ncc(F)cn2)CN1C(=O)c1cccc(Cl)c1Cl (single isomer, unassigned) [Example 204, (6R*)-5-[(2,3-Dichlorophenyl)carbonyl]-1-(5-fluoropyrimidin-2-yl)-6-methyl-4,5,6,7-tetrahydro-1H-[1,2,3]triazolo[4,5-c]pyridine]",180.6 % control
6,"C[C@H]1Cc2c(nnn2-c2ccccn2)CN1C(=O)c1cccc(C(F)(F)F)c1Cl (single isomer, unassigned) [Example 118, 5-{[2-Chloro-3-(trifluoromethyl)phenyl]carbonyl}-(S*)-6-methyl-1-pyridin-2-yl-4,5,6,7-tetrahydro-1H-[1,2,3]triazolo[4,5-c]pyridine]",12.6 % control
